Here are results for three compounds from patent EP4168403B1 (priority 2020, dated 2021).

“Also recorded” adds a separate entry of the source.

In data set [1] the test system is voltage-gated Ca^2+ channels (VGCC). Put plainly: Calcium channel antagonist assay (K+-evoked cytosolic Ca2+, Fluo-4). It is filed as cell-based. Conditions: SH-SY5Y cells, K+ 70 mM, mean ± SEM, read-out: IC50 (µM) Calcium channels blockade. The procedure: The cytosolic Ca^2+ has been measured in SH-SY5Y cells. SH-SY5Y cells were maintained similarly to what was previously described^30. Free cytosolic Ca^2+ was measured using the fluorescent Ca^2+ indicator Fluo-4/AM (Fluo-4 acetomethoxyester). SH-SY5Y cells were seeded onto 96-well black plates at a density of 10^5 cells per well, achieving confluence after 48 h. Cells were washed with Krebs-Hepes solution (KH, in mM: 144 NaCl, 5.9 KCl, 1.2 MgCl2, 2 CaCl2, 11 D-glucose, 10 HEPES, pH 7.4). Cells were loaded with 10 µM Fluo-4/AM and 0.2% pluronic acid in KH and incubated for 45 min at 37 °C in the dark. Then, cells were washed twice with KH to remove the excess of probe. Tested compounds were incubated 10 min before K+ 70 mM was applied to evoke the increment of cytosolic Ca^2+. To normalize Fluo-4 signals, Triton X-100 (5%) and 1 M MnCl2 were applied to register both maximal and minimal fluorescence, respectively. The experiments were analyzed at excitation and emission wavelengths of 485 and 520 nm, respectively, and fluorescence was measured in a fluorescence microplate reader (FLUOstar Optima, BMG, Germany). Data were calculated as a percentage of Fmax - Fmin.
The blocking effect of the depolarization-induced Ca^2+ uptake was investigated in SH-SY5Y neuroblastoma cells stimulated with an extracellular concentration of K+ 70 mM, which induces the cell Ca^2+ levels elevation by opening voltage-gated Ca^2+ channels (VGCC), monitored with the Ca^2+-sensitive fluorescent dye Fluo-4. Nifedipine was used as positive standard.

Data set [2] has as its target T1, human recombinant butyrylcholinesterase (hBuChE; EC 3.1.1.8) (Homo sapiens, UniProt P06276).
T1 construct: purchased Sigma-Aldrich (Prague, Czech Republic)
Put plainly: Cholinesterase inhibition in vitro assay (modified Ellman's method), BuChE. The data set is classed as biochemical. The note with it: pH 7.4, 37 °C, mean ± SEM, read-out: BChE (IC50 µM). How it is done: The AChE and BuChE inhibitory activity of the tested compounds was determined using a modified Ellman's method^31, 32.Human red-blood cell acetylcholinesterase (hAChE; EC 3.1.1.7), and human recombinant butyrylcholinesterase (hBuChE; EC 3.1.1.8), 5,5'-dithiobis(2-nitrobenzoic acid) (Ellman's reagent, DTNB), phosphate buffer (PB, pH 7.4), acetylthiocholine (ATC), and butyrylthiocholine (BTC), were purchased from Sigma-Aldrich (Prague, Czech Republic). Nunc polystyrene 96-well microplates with flat-bottom shape (ThermoFisher Scientific, USA) were used for the measurement and all the assay were carried out in 0.1 M KH2PO4/K2HPO4 buffer, pH 7.4. Enzyme solution was prepared at activity 2.0 units/mL in 2 mL aliquots. The assay mixture (100 µL) consisted of 40 µL of 0.1 M phosphate buffer (pH 7.4), 20 µL of 0.01 M DTNB, 10 µL of enzyme, and 20 µL of 0.01 M substrate (ATC iodide solution). Tested compounds were dissolved first in methanol (BIGI 23 in DMSO) and then further diluted by assay buffer to the final concentration. […]. […] Enzyme with the inhibitor was preincubated for 5 min in the assay mixture and then the reaction was started by addition of 20 µL of substrate (ATC for AChE, BTC for BuChE). The enzyme activity was determined by measuring the increase in absorbance at 412 nm at 37 °C at 2 min intervals using a Multi-mode microplate reader Synergy 2 (Vermont, USA). Each concentration was assayed in triplicate. The obtained data were used to compute the percentage inhibition (I; Equation 1): I = 1−(ΔAi)/(ΔA0) [%] [formula] ΔAi indicates the absorbance change provided by cholinesterase exposed to AChE inhibitors and ΔA0 indicates absorbance change caused by intact cholinesterase (phosphate buffer was used instead of AChE inhibitor solution). […] Calculations were performed using software Microsoft Excel (Redmont, WA, USA) and GraphPad Prism version 5.02 for Windows, GraphPad Software, San Diego, CA, USA.

Data set [3] deals with T2, Aβ1-42 (Homo sapiens, UniProt P05067).
T2 construct: pre-treated Aβ1-42 samples (Bachem AG, Switzerland); purchased Bachem AG, Switzerland
Put plainly: Inhibition of Aβ1-42 self-aggregation (ThT fluorescence). It is filed as biochemical. Conditions: [Inhibitor]=[Aβ1-42]=50 µM, mean ± SEM. How it is done:
Experiments were performed by incubating the peptide in 10 mM phosphate buffer (pH=8.0) containing 10 mM NaCl, at 30 °C for 24 h (final Aβ concentration=50 µM with and without inhibitor (50 µM). The inhibitor was dissolved in methanol and diluted in the assay buffer. Blanks containing inhibitor and ThT were also prepared and evaluated to account for quenching and fluorescence properties. To quantify amyloid fibril formation, the ThT fluorescence method was used^36, 37. After incubation, samples were diluted to a final volume of 2.0 mL with […] glycine-NaOH buffer (pH= 8.5) containing 1.5 µM ThT. A 300-seconds-time scan of fluorescence intensity was carried out (λexc=446 nm; λem=490 nm), and values at plateau were averaged after subtracting the background fluorescence of 1.5 µM ThT solution. The fluorescence intensities were compared and the % inhibition was calculated.
The inhibitory activity of compounds BIGI-3e, BIGI-3h and BIGI-3k against the spontaneous aggregation of Aβ1-42 was determined in vitro using a thioflavin T (ThT)-based fluorometric assay^35. […].

Data set [4] can be described thus: Prediction of blood-brain barrier penetration (PAMPA). It is filed as in vitro ADME. Conditions: for CNS: PAMPA prediction of ability to cross the blood-brain barrier. The procedure: To predict passive blood-brain penetration of novel compounds modification of the parallel artificial membrane permeation (PAMPA) assay has been used based on reported protocol^38, 39. The filter membrane of the donor plate was coated with PBL (Polar Brain Lipid, Avanti, USA) in dodecane (4 µl of 20 mg/ml PBL in dodecane) and the acceptor well was filled with 300 µl of PBS pH 7.4 buffer (VD). Tested compounds were dissolved first in DMSO (0.5% (V/V) final) and that diluted with PBS pH 7.4 to reach the final concentration 50 µM in the donor well. 300 µl of the donor solution was added to the donor wells (VA) and the donor filter plate was carefully put on the acceptor plate so that coated membrane was "in touch" with both donor solution and acceptor buffer. Test compound diffused from the donor well through the lipid membrane (Area=0.28cm^2) to the acceptor well. The concentration of the drug in both donor and the acceptor wells was assessed after 3, 4, 5 and 6 hours of incubation in quadruplicate using the UV plate reader Synergy HT (Biotek, USA) at the maximum absorption wavelength and the standard curve for each compound. […]

T1 sequence (P06276 29-602): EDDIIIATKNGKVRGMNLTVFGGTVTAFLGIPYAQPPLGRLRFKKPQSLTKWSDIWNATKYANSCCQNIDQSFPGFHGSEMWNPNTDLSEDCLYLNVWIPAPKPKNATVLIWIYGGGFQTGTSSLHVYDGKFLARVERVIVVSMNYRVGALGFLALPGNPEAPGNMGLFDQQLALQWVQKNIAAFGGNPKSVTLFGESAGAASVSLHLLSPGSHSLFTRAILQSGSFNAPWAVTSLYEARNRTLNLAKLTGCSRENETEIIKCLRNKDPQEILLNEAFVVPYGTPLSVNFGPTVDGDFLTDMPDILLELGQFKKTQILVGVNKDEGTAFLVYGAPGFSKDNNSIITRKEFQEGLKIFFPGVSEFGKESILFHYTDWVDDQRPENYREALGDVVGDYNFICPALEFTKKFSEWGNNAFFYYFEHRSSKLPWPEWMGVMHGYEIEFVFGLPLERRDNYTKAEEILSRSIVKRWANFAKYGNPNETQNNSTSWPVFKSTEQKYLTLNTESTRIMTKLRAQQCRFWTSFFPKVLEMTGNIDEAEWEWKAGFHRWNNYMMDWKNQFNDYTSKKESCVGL
T2 sequence (P05067 672-713 limits assumed): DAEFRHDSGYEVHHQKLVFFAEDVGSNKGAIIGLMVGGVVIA

As usually defined, the IC50 is the concentration needed to halve the response being measured. What is called inhibition is how much of the control response was suppressed. As for `CCOC(=O)C1=C(C)N(CCC2CCN(Cc3ccccc3)CC2)C(=O)NC1c1coc2c(Cl)cc(Cl)cc2c1=O` (racemic) [BIGI-3h, ethyl 1-(2-(1-benzylpiperidin-4-yl)ethyl)-4-(6,8-dichloro-4-oxo-4H-chromen-3-yl)-6-methyl-2-oxo-1,2,3,4-tetrahydropyrimidine-5-carboxylate], the IC50 turned out to be 1.4 ± 0.4 µM in data set [1] and 17.3 ± 0.9 µM in data set [2]. The compound further returned an inhibition at 50 µM in data set [3] of 66 ± 0.7%. Besides, the “% inhibition Aβ1-42 aggregation” value in data set [3] (50 µM) amounted to 63.6 ± 1.3%. The CNS entry in data set [4] was “best ability to cross the BBB; also recorded: CNS (+)”. Further, the Papp at 50 µM in data set [4] (PAMPA, PBS pH 7.4, 50 µM in donor well, read-out: Pe ± SEM) is 4 ± 0.3 ×10⁻⁶ cm/s.
Turning to `CCOC(=O)C1=C(C)N(CCC2CCN(Cc3ccccc3)CC2)C(=O)NC1c1coc2ccc(Br)cc2c1=O` (centres unmarked) [BIGI-3e, ethyl 1-(2-(1-benzylpiperidin-4-yl)ethyl)-4-(6-bromo-4-oxo-4H-chromen-3-yl)-6-methyl-2-oxo-1,2,3,4-tetrahydropyrimidine-5-carboxylate], the IC50 in data set [1] is 1.9 ± 0.6 µM; in data set [2] it was 8.4 ± 0.34 µM. Further, in data set [3], the inhibition at 50 µM turned out to be 63 ± 2.1%. Also, the CNS result in data set [4] is listed as “CNS (+/-)”.
Taken in the same sequence, the figures for `CCOC(=O)C1=C(C)N(CCCC2CCN(Cc3ccccc3)CC2)C(=O)NC1c1coc2cc(CC)ccc2c1=O` (centres unmarked) [BIGI-3k, ethyl 1-(3-(1-benzylpiperidin-4-yl)propyl)-4-(7-ethyl-4-oxo-4H-chromen-3-yl)-6-methyl-2-oxo-1,2,3,4-tetrahydropyrimidine-5-carboxylate] were 1.4 ± 0.5 µM, 2.95 µM, 63.8 ± 0.8% and “CNS (-)”.
